From US9346820B2, “HIV-1 protease inhibitors having gem-di-fluoro bicyclic P2-ligands” (priority 2013, dated 2016)

What was measured:
[1] = tested on: HIV-1GRL05010^RP10; assay: microbe, parasite or virus in culture; assay type: cell-based; settings: for EC50: Human immunodeficiency virus 1, MT4, read-out: EC50 HIV-1GRL05010^RP10; for fold change of EC50 HIV-1GRL05010^RP10 vs HIV-1NL4-3: number in parentheses
Method: (§1) The susceptibility of HIV-1LAI to various drugs was determined as previously described with minor modifications. Briefly, MT-2 cells (10^4/ml) were exposed to 100 50% tissue culture infectious doses (TCID50) of HIV-1LAI in the presence or absence of various concentrations of drugs in 96-well microculture plates and were incubated at 37° C. for 7 days. After 100 μl of the medium was removed from each well, 3-(4,5-dimetylthiazol-2-yl)-2,5-diphenyltetrazolium bromide (MTT) solution (10 μl, 7.5 mg/ml in phosphate-buffered saline) was added to each well in the plate, followed by incubation at 37° C. for 2 h. […] All assays were performed in duplicate or triplicate. […] To determine the sensitivity of primary HIV-1 isolates to drugs, phytohemagglutinin-stimulated peripheral blood mononuclear cells (PHA-PBMC) (10^6/ml) were exposed to 50 TCID50 of each primary HIV-1 isolate and cultured in the presence or absence of various concentrations of drugs in 10-fold serial dilutions in 96-well microculture plates. In determining the drug susceptibility of certain laboratory HIV-1 strains, MT-4 cells were employed as target cells as previously described with minor modifications. In brief, MT-4 cells (10^5/ml) were exposed to 100 TCID50 of drug-resistant HIV-1 strains in the presence or absence of various concentrations of drugs and were incubated at 37° C. On day 7 of culture, the supernatants were harvested and the amounts of p24 Gag protein were determined by using a fully automated chemiluminescent enzyme immunoassay system (Lumipulse F: Fujirebio Inc., Tokyo). […] All assays were performed in duplicate or triplicate. PHA-PBMs were derived from a single donor in each independent experiment. Thus, for obtaining the data, three different donors were recruited.
(§2) The amounts of p24 were measured every two days for up to 7 days.

[2] = tested on: HIV-1GRL04810^RP18; assay: microbe, parasite or virus in culture; assay type: cell-based; settings: for EC50: Human immunodeficiency virus 1, MT4, read-out: EC50 HIV-1GRL04810^RP18; for fold change of EC50 HIV-1GRL04810^RP18 vs HIV-1NL4-3: number in parentheses
Method: as §1, §2

[3] = tested on: multi-drug-resistant clinical HIV-1 variants; assay: p24 assay in PHA-PBMs, the six multi-drug-resistant clinical variants taken together; assay type: cell-based; settings: Human immunodeficiency virus 1, read-out: EC50 values against clinical multi-drug-resistant variants
Method: The susceptibility of HIV-1LAI to various drugs was determined as previously described with minor modifications. Briefly, MT-2 cells (10^4/ml) were exposed to 100 50% tissue culture infectious doses (TCID50) of HIV-1LAI in the presence or absence of various concentrations of drugs in 96-well microculture plates and were incubated at 37° C. for 7 days. After 100 μl of the medium was removed from each well, 3-(4,5-dimetylthiazol-2-yl)-2,5-diphenyltetrazolium bromide (MTT) solution (10 μl, 7.5 mg/ml in phosphate-buffered saline) was added to each well in the plate, followed by incubation at 37° C. for 2 h. […] All assays were performed in duplicate or triplicate. […] To determine the sensitivity of primary HIV-1 isolates to drugs, phytohemagglutinin-stimulated peripheral blood mononuclear cells (PHA-PBMC) (10^6/ml) were exposed to 50 TCID50 of each primary HIV-1 isolate and cultured in the presence or absence of various concentrations of drugs in 10-fold serial dilutions in 96-well microculture plates. In determining the drug susceptibility of certain laboratory HIV-1 strains, MT-4 cells were employed as target cells as previously described with minor modifications. […] On day 7 of culture, the supernatants were harvested and the amounts of p24 Gag protein were determined by using a fully automated chemiluminescent enzyme immunoassay system (Lumipulse F: Fujirebio Inc., Tokyo). […]

[4] = tested on: HIV-1LAI; assay: Antiviral activity of brain-side medium from the BBB assay, MTT assay in MT-2 cells; assay type: cell-based
Method: (§3) The “brain-side” of the medium containing a compound collected in the BBB in vitro assay, was subjected to antiviral assays. Two HIV-1 isolates were employed, HIV-1LAI (Panel A) and HIV-1ERS104pre (Panel B). […] Dilution ranges were between 10-fold and 10,000-fold, and the percentage of viral inhibition was used as an endpoint. […] Assays were conducted in duplicate and error bars show standard deviations.
(§4) The assay was carried out using 10, 100, 1000 and 10000 times-diluted brain-side stocks of compounds.

[5] = tested on: HIV-1GRL-04810^RP18, and HIV-1GRL-05010^RP10; assay: p24 assay, the two GRL-selected variants taken together; assay type: cell-based; settings: Human immunodeficiency virus 1, read-out: EC50 values against HIV-1GRL-04810^RP18 and HIV-1GRL-05010^RP10
Method: as §1

[6] = tested on: HIV-1ERS104pre; assay: Antiviral activity of brain-side medium from the BBB assay, p24 assay in PHA-PBMs; assay type: cell-based; settings: PHA-activated PBMCs
Method: as §3, §4

[7] = tested on: HIV-1NL4-3; assay: In vitro selection of PI-resistant HIV-1 variants in MT-4 cells with sequencing of the protease-encoding region; assay type: cell-based
Excerpt: MT-4 cells ([…]) were exposed to HIV-1NL4-3 (500 TCID50) and cultured in the presence of various PIs at an initial concentration of its EC50 value. Viral replication was monitored by the determination of the amount of p24 Gag produced by MT-4 cells. The culture supernatants were harvested on day 7 and used to infect fresh MT-4 cells for the next round of culture in the presence of increasing concentrations of each drug. When the virus began to propagate in the presence of the drug, the drug concentration was increased generally 2- to 3-fold. Proviral DNA samples obtained from the lysates of infected cells were subjected to nucleotide sequencing. This drug selection procedure was carried out until the drug concentration reached 5 μM (31-33). In the experiments for selecting drug-resistant variants, MT-4 cells were exploited as target cells since HIV-1 in general replicates at greater levels in MT-4 cells than in MT-2 cells.
Molecular cloning and determination of the nucleotide sequences of HIV-1 strains passaged in the presence of anti-HIV-1 agents were performed as described previously (31). In brief, high molecular-weight DNA was extracted from HIV-1-infected MT-4 cells by using the InstaGene Matrix (Bio-Rad Laboratories, Hercules, Calif.) and was subjected to molecular cloning, followed by sequence determination. The primers used for the first round of PCR with the entire Gag- and protease-encoding regions of the HIV-1 genome were LTR F1 (5′-GATGCTACATATAAGCAGCTGC-3′; SEQ ID NO: 13) and PR12 (5′-CTCGTGACAAATTTCTACTAATGC-3′; SEQ ID NO: 14). The first-round PCR mixture consisted of 1 μl of proviral DNA solution, 10 μl of Premix Taq (Ex Taq Version; Takara Bio Inc., Otsu, Japan), and 10 pmol of each of the first PCR primers in a total volume of 20 μl. The PCR conditions used were an initial 3 min at 95° C., followed by 35 cycles of 40 sec at 95° C., 20 sec at 55° C., and 2 min at 72° C., with a final 10 min of extension at 72° C. The first-round PCR products (1 μl) were used directly in the second round of PCR with primers LTR F2 (5′-GAGACTCTGGTAACTAGAGATC-3′; SEQ ID NO: 15) and Ksma2.1 (5′-CCATCCCGGGCTTTAATTTTACTGGTAC-3′; SEQ ID NO: 16) under the PCR conditions of an initial 3 min at 95° C., followed by 35 cycles of 30 sec at 95° C., 20 sec at 55° C., and 2 min at 72° C., with a final 10 min of extension at 72° C. The second-round PCR products were purified with spin columns (MicroSpin S-400 HR columns; Amersham Biosciences Corp., Piscataway, N.J.), cloned directly, and subjected to sequencing with a model 3130 automated DNA sequencer (Applied Biosystems, Foster City, Calif.).

[8] = tested on: variants selected with DRV over 10 and 20 passages; assay: Antiviral activity against DRV-resistant variants selected over 10 and 20 passages; assay type: cell-based, HIV-1; settings: Human immunodeficiency virus 1, read-out: EC50 against variants selected with DRV over 10 and 20 passages
[9] = 10-fold diluted brain-side medium
[10] = 100-fold diluted brain-side medium

SMILES	EC50 [1]	fold change of EC50 HIV-1GRL05010^RP10 vs HIV-1NL4-3 [1]	EC50 [2]	fold change of EC50 HIV-1GRL04810^RP18 vs HIV-1NL4-3 [2]	EC50 [3]	suppression of HIV-1LAI replication [4, 9]	suppression of HIV-1LAI replication [4, 10]	EC50 [5]	antiviral profile of brain-side preparations (FIG. 5B) [6]	concentration in the presence of which HIV-1NL4-3 had acquired an ability to replicate ([7]; 25 passages, initial concentration 0.003 μM, MT-4 cells)	fold-increased concentration tolerated by selected virus ([7]; 25 passages, relative to initial concentration 0.003 μM)	EC50 [8]	amino acid substitutions in the protease-encoding region of selected HIV-1NL4-3 ([7]; by passage 15)	concentration in the presence of which HIV-1NL4-3 attained an ability to replicate ([7]; by passage 15, starting at 0.003 μM, MT-4 cells)	suppression levels of brain-side preparations compared (FIG. 5A) ([4]; HIV-1LAI)
COC(=O)N[C@H](C(=O)N[C@@H](Cc1ccccc1)[C@@H](O)CN(Cc1ccc(-c2ccccn2)cc1)NC(=O)[C@@H](NC(=O)OC)C(C)(C)C)C(C)(C)C [ATV, Atazanavir]	95 nM	24 fold	325 nM	81 fold	–	–	–	–	–	–	–	–	–	–	–
CC(C)CN(C[C@@H](O)[C@H](Cc1ccccc1)NC(=O)O[C@H]1CO[C@H]2OCC[C@H]21)S(=O)(=O)c1ccc(N)cc1 [DRV, darunavir]	37 nM	–	41 nM	–	–	–	–	–	–	–	–	–	–	–	–
COc1ccc(S(=O)(=O)N(CC(C)C)C[C@@H](O)[C@H](Cc2ccccc2)NC(=O)OC2CO[C@H]3OCC(F)(F)[C@@H]23)cc1 (stereo partly drawn) [GRL-04810]	29 nM	58 fold	33 nM	66 fold	2 to 21 nM	94%	45%	29 to 39 nM	virtually the same antiviral profiles	0.080 µM	26 fold	30 to 34 nM	–	–	–
CC(C)CN(C[C@@H](O)[C@H](Cc1ccccc1)NC(=O)O[C@H]1CO[C@H]2OCC(F)(F)[C@H]21)S(=O)(=O)c1ccc(N)cc1 [GRL-05010]	36 nM	10 fold	39 nM	13 fold	2 to 21 nM	91%	73%	29 to 39 nM	virtually the same antiviral profiles	–	–	26 to 43 nM	M46I and I50V by passage 15 in all 24 clones examined, while N38K was detected in 8 of 24 clones and M36I in 3 clones	0.037 µM	–
CC(C)(C)NC(=O)[C@@H]1C[C@@H]2CCCC[C@@H]2CN1C[C@@H](O)[C@H](Cc1ccccc1)NC(=O)[C@H](CC(N)=O)NC(=O)c1ccc2ccccc2n1 [SQV, Saquinavir]	36 nM	1 fold	32 nM	1 fold	–	–	–	32 to 36 nM	–	–	–	–	–	–	less than those of GRL-04810^brain and GRL-05010^brain
